Results from PubChem BioAssay AID330 (DTP/NCI, 2004).
Where “and” joins values, the source holds several entries; their conditions need not be identical. Identical values can stand only once. Inconclusive results and toxic doses are left out.

System: P388 leukemia ip, CD2F1 mice, survival T/C
Experiment: NCI In Vivo Anticancer Drug Screen. Data for tumor model P388 Leukemia (intraperitoneal) in CD2F1 (CDF1) mice
Conditions: endpoint: median survival time, higher = longer survival
Procedure, shortened: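 Mice carrying the transplanted tumor received test compound or vehicle. Survival was recorded in each group, and the value is the treated-group measurement divided by that of the vehicle-treated control group.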

[1] = dose: 7.5 mg/kg/injection, schedule: Q01DX005 (ip), vehicle: saline with Tween-80
[2] = dose: 15.0 mg/kg/injection, schedule: Q01DX005 (ip), vehicle: saline with Tween-80
[3] = dose: 50.0 mg/kg/injection, schedule: Q01DX005 (ip), vehicle: saline with Tween-80
[4] = dose: 100.0 mg/kg/injection, schedule: Q01DX005 (ip), vehicle: saline with Tween-80
[5] = dose: 200.0 mg/kg/injection, schedule: Q01DX005 (ip), vehicle: saline with Tween-80
[6] = dose: 25.0 mg/kg/injection, schedule: Q01DX005 (ip), vehicle: saline with Tween-80
[7] = dose: 50.0 mg/kg/injection, schedule: Q01DX005 (ip), vehicle: Klucel (hydroxypropylcellulose) (HPC)
[8] = dose: 100.0 mg/kg/injection, schedule: Q01DX005 (ip), vehicle: Klucel (hydroxypropylcellulose) (HPC)
[9] = dose: 200.0 mg/kg/injection, schedule: Q01DX005 (ip), vehicle: Klucel (hydroxypropylcellulose) (HPC)
[10] = dose: 12.5 mg/kg/injection, schedule: Q01DX009 (ip), vehicle: saline with Tween-80
[11] = dose: 25.0 mg/kg/injection, schedule: Q01DX009 (ip), vehicle: saline with Tween-80
[12] = dose: 50.0 mg/kg/injection, schedule: Q01DX009 (ip), vehicle: saline with Tween-80

SMILES: Cc1cc[n+](C2=C(Nc3cccc(C(F)(F)F)c3)C(=O)c3ccccc3C2=O)cc1
- T/C (dose: 3.75 mg/kg/injection, schedule: Q01DX005 (ip), vehicle: saline with Tween-80): 105 % of control
- T/C [1]: 119 % of control
- T/C [2]: 105 % of control

SMILES: COC(=O)[C@@]12OC[C@]34[C@H]([C@@H](O)[C@@H]1O)[C@@]1(C)CC(=O)C(O)=C(C)[C@@H]1C[C@H]3OC(=O)[C@H](OC(=O)C(N)Cc1ccccc1)[C@@H]24 (stereo partly drawn)
- T/C (dose: 0.5 mg/kg/injection, schedule: Q01DX005 (ip), vehicle: Klucel (hydroxypropylcellulose) (HPC)): 107 % of control
- T/C (dose: 1.0 mg/kg/injection, schedule: Q01DX005 (ip), vehicle: Klucel (hydroxypropylcellulose) (HPC)): 103 % of control and 107 % of control
- T/C (dose: 2.0 mg/kg/injection, schedule: Q01DX005 (ip), vehicle: Klucel (hydroxypropylcellulose) (HPC)): 108 % of control and 119 % of control
- T/C (dose: 4.0 mg/kg/injection, schedule: Q01DX005 (ip), vehicle: Klucel (hydroxypropylcellulose) (HPC)): 112 % of control
- T/C (dose: 8.0 mg/kg/injection, schedule: Q01DX005 (ip), vehicle: Klucel (hydroxypropylcellulose) (HPC)): 110 % of control
- T/C (dose: 125.0 micrograms/kg/injection, schedule: Q01DX005 (ip), vehicle: Klucel (hydroxypropylcellulose) (HPC)): 96 % of control
- T/C (dose: 250.0 micrograms/kg/injection, schedule: Q01DX005 (ip), vehicle: Klucel (hydroxypropylcellulose) (HPC)): 107 % of control
- T/C (dose: 500.0 micrograms/kg/injection, schedule: Q01DX005 (ip), vehicle: Klucel (hydroxypropylcellulose) (HPC)): 98 % of control
- T/C (dose: 1000.0 micrograms/kg/injection, schedule: Q01DX005 (ip), vehicle: Klucel (hydroxypropylcellulose) (HPC)): 107 % of control

SMILES: O=C1c2ccccc2C(=O)C2C(=O)c3ccccc3C(=O)C12 (stereo not drawn)
- T/C [3]: 95 % of control
- T/C [4]: 95 % of control
- T/C [5]: 103 % of control

SMILES: CCN(CC)CCNC1CC2CCC1(C)C2(C)C (stereo not drawn)
- T/C [6]: 98 % of control
- T/C [3]: 91 % of control
- T/C [4]: 89 % of control

SMILES: COC1=CP(C)(=S)CC1 (stereo not drawn)
- T/C (dose: 100.0 mg/kg/injection, schedule: Q04DX003 (ip), vehicle: Klucel (hydroxypropylcellulose) (HPC)): 112 % of control
- T/C (dose: 200.0 mg/kg/injection, schedule: Q04DX003 (ip), vehicle: Klucel (hydroxypropylcellulose) (HPC)): 98 % of control

SMILES: OCC1OC(O)C(Cl)(Cl)C(O)C1O (stereo not drawn)
- T/C (dose: 50.0 mg/kg/injection, schedule: Q01DX009 (ip), vehicle: saline): 107 % of control
- T/C (dose: 100.0 mg/kg/injection, schedule: Q01DX009 (ip), vehicle: saline): 117 % of control
- T/C (dose: 200.0 mg/kg/injection, schedule: Q01DX009 (ip), vehicle: saline): 112 % of control

SMILES: CC1(C)CC(=O)C(C(c2ccc3c(c2)OCO3)C2C(=O)CC(C)(C)CC2=O)C(=O)C1
- T/C [7]: 91 % of control
- T/C [8]: 101 % of control
- T/C [9]: 104 % of control

SMILES: CO[C@H]1Nc2c(ccc(C)c2O)C(=O)N2C=C(/C=C/C(N)=O)C[C@@H]12
- T/C (dose: 0.05 mg/kg/injection, schedule: Q04DX003 (ip), vehicle: DMSO): 106 % of control
- T/C (dose: 0.05 mg/kg/injection, schedule: Q04DX003 (ip), vehicle: saline): 122 % of control
- T/C (dose: 0.1 mg/kg/injection, schedule: Q04DX003 (ip), vehicle: DMSO): 112 % of control
- T/C (dose: 0.13 mg/kg/injection, schedule: Q04DX003 (ip), vehicle: saline + alcohol): 152 % of control
- T/C (dose: 0.2 mg/kg/injection, schedule: Q04DX003 (ip), vehicle: DMSO): 118 % of control
- T/C (dose: 0.2 mg/kg/injection, schedule: Q04DX003 (ip), vehicle: saline): 122 % of control
- T/C (dose: 0.22 mg/kg/injection, schedule: Q04DX003 (ip), vehicle: saline + alcohol): 153 % of control and 161 % of control (2×)
- T/C (dose: 0.4 mg/kg/injection, schedule: Q04DX003 (ip), vehicle: saline): 155 % of control
- T/C (dose: 0.6 mg/kg/injection, schedule: Q04DX003 (ip), vehicle: saline + alcohol): 185 % of control
- T/C (dose: 0.8 mg/kg/injection, schedule: Q04DX003 (ip), vehicle: saline): 110 % of control
- T/C (dose: 200.0 micrograms/kg/injection, schedule: Q01DX009 (ip), vehicle: saline): 150 % of control
- T/C (dose: 200.0 micrograms/kg/injection, schedule: Q04DX003 (ip), vehicle: saline with Tween-80): 165 % of control

SMILES: COc1cccc(N=Nc2c(N)nc(N)nc2N)c1
- T/C [10]: 100 % of control
- T/C [11]: 108 % of control
- T/C [12]: 117 % of control

SMILES: COC1=C(C)C(=O)c2[nH]ccc2C1=O
- T/C (dose: 100.0 mg/kg/injection, schedule: Q04DX002 (ip), vehicle: saline with Tween-80): 102 % of control

SMILES: Cc1ccc(S(=O)(=O)N/N=C/c2c(-c3ccc(Cl)cc3)nc3n2CCS3)cc1
- T/C (dose: 100.0 mg/kg/injection, schedule: Q01DX001 (ip), vehicle: Klucel (hydroxypropylcellulose) (HPC)): 100 % of control
- T/C (dose: 200.0 mg/kg/injection, schedule: Q01DX001 (ip), vehicle: Klucel (hydroxypropylcellulose) (HPC)): 92 % of control
- T/C (dose: 400.0 mg/kg/injection, schedule: Q01DX001 (ip), vehicle: Klucel (hydroxypropylcellulose) (HPC)): 94 % of control

SMILES: C[Si](C)(C)N([Si](C)(C)C)[Si](C)(C)C
- T/C (dose: 50.0 mg/kg/injection, schedule: Q01DX009 (ip), vehicle: other): 97 % of control
- T/C (dose: 100.0 mg/kg/injection, schedule: Q01DX009 (ip), vehicle: other): 98 % of control
- T/C (dose: 200.0 mg/kg/injection, schedule: Q01DX009 (ip), vehicle: other): 100 % of control

SMILES: N#Cc1c(=O)n(O)c2ccccc2[n+]1[O-]
- T/C [6]: 94 % of control
- T/C [3]: 97 % of control
- T/C [4]: 106 % of control
- T/C [5]: 102 % of control
- T/C (dose: 400.0 mg/kg/injection, schedule: Q01DX005 (ip), vehicle: saline with Tween-80): 93 % of control

SMILES: NCC(=O)NC(CSC(c1ccccc1)c1ccccc1)C(=O)NCC(=O)O (stereo not drawn)
- T/C [7]: 102 % of control
- T/C [8]: 103 % of control
- T/C [9]: 96 % of control

SMILES: S=C(Nc1ccc(I)cc1)SCc1ccco1
- T/C (dose: 50.0 mg/kg/injection, schedule: Q01DX009 (ip), vehicle: suspension in saline): 90 % of control
- T/C (dose: 100.0 mg/kg/injection, schedule: Q01DX009 (ip), vehicle: suspension in saline): 112 % of control
- T/C (dose: 200.0 mg/kg/injection, schedule: Q01DX009 (ip), vehicle: suspension in saline): 109 % of control

SMILES: CN(C)/C=C1\C(C(C)(C)C)=CC(C(C)(C)C)=C1N=O
- T/C (dose: 60.0 mg/kg/injection, schedule: Q01DX005 (ip), vehicle: Klucel (hydroxypropylcellulose) (HPC)): 105 % of control
- T/C (dose: 120.0 mg/kg/injection, schedule: Q01DX005 (ip), vehicle: Klucel (hydroxypropylcellulose) (HPC)): 104 % of control

SMILES: COc1cc2c(cc1OC)C13CCN4CC5=CCOC6CC(=O)N2C1C6C5CC43 (stereo not drawn)
- T/C [1]: 102 % of control
- T/C [10]: 100 % of control
- T/C [2]: 97 % of control
- T/C [11]: 100 % of control
- T/C (dose: 25.0 mg/kg/injection, schedule: Q04DX003 (ip), vehicle: saline sonified): 100 % of control
- T/C (dose: 30.0 mg/kg/injection, schedule: Q01DX005 (ip), vehicle: saline with Tween-80): 100 % of control
- T/C [12]: 100 % of control
- T/C (dose: 50.0 mg/kg/injection, schedule: Q04DX003 (ip), vehicle: saline sonified): 95 % of control
- T/C (dose: 60.0 mg/kg/injection, schedule: Q01DX005 (ip), vehicle: saline with Tween-80): 93 % of control

SMILES: N#CC1=C(O)/C(=C\c2ccc(Cl)cc2)N=C1N
- T/C [3]: 88 % of control
- T/C [4]: 91 % of control
- T/C [5]: 94 % of control
